Laboratory results taken from article PMC11823679, “Protamine protects against vancomycin-induced kidney injury” (Antimicrobial Agents and Chemotherapy, 2025).
Entries after “also recorded” stand apart in the source; their conditions may differ.

Experiments:
Urinary KIM-1 = Urinary KIM-1 kidney injury in rats given vancomycin and/or protamine
Procedure: Male Sprague-Dawley rats (n = 19; age 8–10 weeks; 268–304 g; Envigo, Indianapolis, IN, USA) underwent double jugular catheterization ([33]) (Fig. 3A). Surgery was performed under ketamine (100 mg/kg of body weight) and xyalzine (10 mg/kg of body weight) anesthesia with buprenorphine (0.02 mg/kg of body weight) given post-operatively for pain management. Animals were allowed to recover 4 days before the administration of any drug. Animals were housed in metabolic cages starting 1 day prior to day 0 with access to food and water ad libitum for the duration of the study (Fig. 3B).
Animals were divided into three experimental treatment protocols. Using a dedicated jugular vein for dosing, the animals received clinical grade intravenous protamine and/or vancomycin in doses allometrically scaled to humans according to the following protocols: (i) protamine sulfate (1.5 mg/kg of body weight) and vancomycin (150 mg/kg of body weight) (n = 6); (ii) protamine only (1.5 mg/kg of body weight) with saline sham (sham for volume of vancomycin) (n = 7); or (iii) vancomycin only (150 mg/kg of body weight) with saline sham (sham for volume of protamine) (n = 6) ([34][–][36]). Saline sham was given to match the volumes of protamine and vancomycin doses to maintain euvolemia. On day 0, all animals received only iohexol (51.8 mg/day) intravenously to establish baseline GFR measurements. Drugs were administered as described above by treatment protocols to all groups on days 1–4. Infusion times for each of the drugs include (i) protamine sulfate, 5 minutes; (ii) vancomycin and iohexol, 2 minutes; and (iii) saline sham, 5 or 2 minutes depending on what the sham was replacing.
Urine samples were collected daily, and volumes were measured starting from day 0 to day 4. Samples were centrifuged at 500 g for 10 minutes, and the resulting supernatant was aliquoted (1.5 mL) and stored at −80°C for renal biomarker analysis later.
Urinary samples were analyzed for KIM-1 using the Milliplex MAP Rat Kidney Toxicity Magnetic Bead Panel 1 (EMD Millipore Corporation, Charles, MO, USA) according to the manufacturer’s directions and as previously described ([34], [36], [37]). Briefly, neat urine aliquots were mixed with monoclonal antibody-coated magnetic microbeads (Bead Panel 1) and run on a 96-well plate, which also included a standard curve. Biomarker data were acquired, and concentrations were analyzed using Belysa Immunoassay Curve-Fitting Software V1 (MilliporeSigma, Darmstadt, Germany). The amount of urinary KIM-1 excreted over the 24-h collection period was obtained by multiplying the urinary concentration by 24-h urinary volume.
An omnibus test, i.e., joint tests (multi-degree of freedom) of the interaction and main effects, which is similar to the F test in ANOVA, was used initially (STATA 17.0 BE, StataCorp LLC, College Station, TX, USA). Only models with significant interaction at P < 0.05 were selected for post hoc analysis (i.e., identification of the difference between treatment groups and days). Margins were calculated for a full factorial of the variables, i.e., main effects for each variable and interactions. Referent groups were pre-treatment baseline values and protamine alone as a treatment, except where noted. […] LOWESS graphs were produced in R version 4.2.2 using ggplot2. […] All tests were two-tailed; a P < 0.05 was required for statistical significance. Graphs for cellular studies were generated using GraphPad version 9.3.1 and were fit with a log(inhibitor) vs normalized response function after log transformation.

OAT1 = OAT1 inhibition study (CHOK1 cells, p-aminohippurate substrate); format: cell-based; settings: for Inhibition of OAT1 (in words): p-aminohippurate 10 µM
Procedure: (§1) Organic anion transporter (OAT1 and OAT3) and OCT2 inhibition studies with protamine sulfate were performed by Eurofins Scientific (St. Charles, MO, USA) as previously described ([38], [39]). Protamine sulfate was dissolved in DMSO to 1.0E-02 M and tested concurrently with p-aminohippurate 10 µM (substrate) for OAT1, ranitidine 10 µM (substrate) for OAT3, and metformin 100 µM (substrate) for OCT2. A pre-incubation time of 30 minutes was used, followed by 20 minutes of incubation with the substrate. CHOK1 cells were used in OAT1 and 3 experiments, and HEK cells were used in OCT2 experiments. The percentage of inhibition was calculated vs the percentage of control. The IC50 value (concentration causing a half-maximal inhibition of the control value) was determined by nonlinear regression analysis of the concentration-response curve from a Hill equation.
(§2) No data were excluded as outliers.

OAT3 = OAT3 inhibition study (CHOK1 cells, ranitidine substrate); format: cell-based; settings: for Inhibition of OAT3 (in words): ranitidine 10 µM
Procedure: as §1, §2

OCT2 = OCT2 inhibition study (HEK cells, metformin substrate); format: cell-based; settings: for Inhibition of OCT2 (in words): metformin 100 µM
Procedure: as §1, §2

opossum kidney cells = settings: cited from earlier work
Description: Based on chemical structure, we hypothesized that protamine might block megalin and decrease VAN. While relatively little information is available on the megalin-binding capacity of protamine, protamine shares binding sites with heparin (which is the current target for FDA-approved use) and megalin ([30], [31]). […] Megalin antagonists ... || Originally derived from salmon fish sperm (salmine), protamine is a highly positively charged protein consisting of 32 amino acids. Currently, it is widely used as an effective agent to neutralize heparin using electrostatic bonds made between the cationic arginine groups of protamine and the anionic heparin in a 1:1 ratio ([6]). Specifically, protamine shares binding sites with heparin (current target for FDA-approved use) and megalin ([30], [31]). On this note, a clinical limitation for the use of protamine arises for patients who require heparin infusions, such as post-diabetic foot infecti ...

[1] = in vivo; cited from earlier work
Procedure: Additional work i ... || Despite the promise of protamine as a new treatment approach, this study is subject to several limitations. First, our study was performed in rats. While the rat model has shown strong relevance to the human condition ([14]) with respect to VAN, clinical trials are necessary to confirm the effect. Second, protamine delayed kidney injury by 1–3 days; however, a multi-pronged approach may be needed to fully suppress injury in vancomycin therapy that exceeds 2 days. Third, as noted above, protamine is not a viable therapeutic for patients who require heparin. Fourth, protamine itself is associate ...

[2] = CHOK1 cells, listed as protamine

- IC50 (OAT1; CHOK1 cells, p-aminohippurate 10 µM substrate, pre-incubation 30 minutes, 20 minutes with substrate, protamine sulfate in DMSO, Eurofins): 100 µM
- IC50 ratio protamine vs probenecid (OAT1; OAT1): 62.5 times higher
- Inhibition of OAT-1 (OAT1; at 0.1 mM protamine, Fig. 6): < 50%
- IC50 (OAT3; CHOK1 cells, ranitidine 10 µM substrate, pre-incubation 30 minutes, 20 minutes with substrate, protamine sulfate in DMSO, Eurofins): 100 µM
- IC50 ratio protamine vs probenecid (OAT3; OAT3): 58.8 times higher
- Inhibition of OAT-3 (OAT3; at 0.1 mM protamine, Fig. 6): < 50%
- IC50 (OCT2; HEK cells, metformin 100 µM substrate, pre-incubation 30 minutes, 20 minutes with substrate, protamine sulfate in DMSO, Eurofins): 43 µM
- IC50 ratio protamine vs verapamil (OCT2; OCT2): 5.2 times higher
- Inhibition of OCT-2 (OCT2; at similar concentrations (to 0.1 mM) of protamine, Fig. 6): at least 50%
Substance: Protamine
- Protective effect against vancomycin-associated nephrotoxicity (in words) (Urinary KIM-1; addition of protamine to vancomycin): provides a protective effect against vancomycin-associated nephrotoxicity
- Delay of vancomycin-induced kidney injury as defined by urinary KIM-1 (Urinary KIM-1; protamine added to vancomycin therapy): 1 to 3 days
- KIM-1 change from baseline of day 1 (in words) (Urinary KIM-1; rat, in vivo): did not have a KIM-1 increase over the 4 days
- KIM-1 compared to protamine alone (in words) (Urinary KIM-1; rat, in vivo): did not experience this increase on day 2
- KIM-1 compared to vancomycin alone (in words) (Urinary KIM-1; rat, in vivo): numerically similar to animals that received vancomycin alone
- Injury prevention (in words) (Urinary KIM-1; urinary KIM-1, protamine with vancomycin): a full day of injury prevention
- Inhibition of OAT1 (in words) (OAT1; CHOK1 cells): does not appear to have significant inhibition on OAT1, OAT3, or OCT2
- Inhibition of OAT1 (in words) (OAT1; [2]): No substantial inhibition; also recorded: does not have a significant inhibition on OAT1, OAT3, or OCT2 except at extremely high concentrations; also recorded: little to no inhibition
- Inhibition of OAT3 (in words) (OAT3; CHOK1 cells): does not appear to have significant inhibition on OAT1, OAT3, or OCT2
- Inhibition of OAT3 (in words) (OAT3; [2]): No substantial inhibition; also recorded: does not have a significant inhibition on OAT1, OAT3, or OCT2 except at extremely high concentrations; also recorded: little to no inhibition
- Inhibition of OCT2 (in words) (OCT2; HEK cells): does not appear to have significant inhibition on OAT1, OAT3, or OCT2
- Inhibition of OCT2 (in words) (OCT2; HEK cells, listed as protamine): No substantial inhibition; also recorded: does not have a significant inhibition on OAT1, OAT3, or OCT2 except at extremely high concentrations; also recorded: minor inhibition
- Entry into kidney epithelial cells (in words) (opossum kidney cells): enters kidney epithelial cells and localizes in the cytoplasm via receptor-mediated endocytosis
- Inhibition of gentamicin uptake (in words) (opossum kidney cells; cultured opossum kidney cells that expressed megalin and cubilin, ref Nagai and colleagues ([32])): inhibited the uptake of gentamicin
- Prevention of gentamicin accumulation (in words) (opossum kidney cells; kidney epithelial cells): has demonstrated prevention of gentamicin accumulation
- Safety liabilities (in words) [1]: severe hypotension and anaphylactoid-like reactions
- Toxicities (in words) [1]: cardiopulmonary dysfunction and shock as well as antibody-mediated hypersensitivity reactions
